Test results: patent publication US10653709B2, “Methods of folding a graft copolymer with dual anticancer drugs and related applications” (priority 2014, dated 2020)

Legend:
Format in all cases: cell-based
[1] = tested on: panel of 9 cancer cell lines; test: In vitro cytotoxicity across the panel; conditions: range over the panel, 48 hours; read-out: IC50s across cancer cell lines
Method: (§1) In vitro cytotoxicity of CPT, Dox, MB-20 and MB-20/Dox was measured using the 3-(4,5-dimethylthiazol-2-yl)-2,5-diphenyltetrazolium bromide (MTT) assay. Briefly, cancer cells were seeded in a 96-well plate at a density of 5,000 cells per well. After 12 h incubation, a series of drug dilution (1 nM to 300 μM) were added into wells. After 48 h of drug treatment, the cytotoxicity was measured using the MTT assay. To enhance the assay sensitivity, Sorensen's glycine buffer (0.1 M glycine, 0.1 M NaCl adjust pH to 10.5 with 0.1 N NaOH) was added into wells before absorbance assay. See Plumb et al., Cancer Res., 49, 4435-4440 (1989); Tai et al., Mol. Pharm., 8, 901-912 (2011); and Tai et al., Mol. Pharm., 10, 477-487 (2013). The absorbance at wavelength of 570 nm was measured using a microplate reader (Infinite® M200 PRO, Tecan, Mannedorf, Switzerland). The half-maximal inhibitory concentration (IC50) was calculated by fitting a concentration—absorbance curve using the Graphpad Prism 5 software (Graphpad Software Inc., San Diego, Calif., United States of America).

HL-60 = test: In vitro cytotoxicity, CellTiter-Glo Luminescent Cell Viability Assay; conditions: Homo sapiens, HL-60 (leukemia), suspension cells, mean ± SD
MDA-MB-468 = test: In vitro cytotoxicity, MTT assay; conditions: Homo sapiens; MDA-MB-468 (breast), 48 hours, mean ± SD
Method: as §1

PC-3 = test: In vitro cytotoxicity, MTT assay; conditions: Homo sapiens; PC-3 (prostate), 48 hours, mean ± SD
Method: as §1

HeLa = test: In vitro cytotoxicity, MTT assay; conditions: Homo sapiens; HeLa (cervix), 48 hours, mean ± SD
Method: as §1

NCI-H441 = test: In vitro cytotoxicity, MTT assay; conditions: Homo sapiens; NCI-H441 (lung), 48 hours, mean ± SD
Method: as §1

A549 = test: In vitro cytotoxicity, MTT assay; conditions: Homo sapiens; A549 (lung), 48 hours, mean ± SD
Method: as §1

MDA-MB-231 = test: In vitro cytotoxicity, MTT assay; conditions: Homo sapiens; MDA-MB-231 (breast), 48 hours, mean ± SD
Method: as §1

Hep G2 = test: In vitro cytotoxicity, MTT assay; conditions: Homo sapiens, HepG2; Hep G2 (liver), 48 hours, mean ± SD
Method: as §1

MCF-7 = test: In vitro cytotoxicity, MTT assay; conditions: Homo sapiens, MCF7; MCF-7 (breast), 48 hours, mean ± SD
Method: as §1

| SMILES | IC50 [1] | IC50 (HL-60) | IC50 (MDA-MB-468) | IC50 (PC-3) | IC50 (HeLa) | IC50 (NCI-H441) | IC50 (A549) | IC50 (MDA-MB-231) | IC50 (Hep G2) | IC50 (MCF-7) |
| --- | --- | --- | --- | --- | --- | --- | --- | --- | --- | --- |
| CC[C@@]1(O)C(=O)OCc2c1cc1n(c2=O)Cc2cc3ccccc3nc2-1 [CPT, camptothecin] | 20 to 3300 nM | 400 ± 1000 nM | 90 ± 90 nM | 20 nM | 3300 ± 1500 nM | 100 ± 200 nM | 300 nM | 600 ± 500 nM | 600 ± 1400 nM | 1200 ± 1000 nM |
| COc1cccc2c1C(=O)c1c(O)c3c(c(O)c1C2=O)C[C@@](O)(C(=O)CO)C[C@@H]3O[C@H]1C[C@H](N)[C@H](O)[C@H](C)O1 [Dox, doxorubicin] |  | 300 nM | 100 nM | 200 ± 400 nM | 1000 ± 1700 nM | 200 ± 400 nM | 500 ± 800 nM | 100 nM | 500 ± 1400 nM | 300 nM |
